Laboratory results from PubChem BioAssay AID226 (DTP/NCI, 2004).
Values joined by “and” are separate entries in the source; they are usually repeats but may differ in a detail not shown here. Equal entries are not always repeated. Inconclusive results and toxic doses are left out.

Test system: B6C3F1 mice, intracerebral ependymoblastoma, median survival T/C
Experiment: NCI In Vivo Anticancer Drug Screen. Data for tumor model Ependymoblastoma (intracerebral) in B6C3F1 mice
Settings: endpoint: median survival time, higher = longer survival
Procedure: The antitumor activity of compounds was measured in mice bearing transplantable tumors. Survival or tumor size were measured and the results are expressed as the measurement made in the treated group (T) divided by the measurement made in the vehicle treated control group (C). The tumor model used in this assay is Ependymoblastoma (intracerebral) in B6C3F1 mice

[1] = dose: 8.0 mg/kg/injection, schedule: Q01DX005 (ip), vehicle: saline
[2] = dose: 16.0 mg/kg/injection, schedule: Q01DX005 (ip), vehicle: saline
[3] = dose: 32.0 mg/kg/injection, schedule: Q01DX005 (ip), vehicle: saline

Q: For `COc1ccc2c(c1O)-c1cccc3c1[C@@H](C2)N(CCCl)CC3`, which T/C (dose: 0.25 mg/kg/injection, schedule: Q01DX005 (ip), vehicle: saline) is on record?
A: 105 % of control

Q: What about the T/C (dose: 0.5 mg/kg/injection, schedule: Q01DX005 (ip), vehicle: saline) of the same molecule?
A: 100 % of control

Q: And the T/C (dose: 1.0 mg/kg/injection, schedule: Q01DX005 (ip), vehicle: saline)?
A: 96 % of control

Q: And the T/C (dose: 2.0 mg/kg/injection, schedule: Q01DX005 (ip), vehicle: saline)?
A: 99 % of control and 87 % of control

Q: What about the T/C (dose: 4.0 mg/kg/injection, schedule: Q01DX005 (ip), vehicle: Klucel (hydroxypropylcellulose) (HPC)) of the same molecule?
A: 98 % of control

Q: And the T/C (dose: 4.0 mg/kg/injection, schedule: Q01DX005 (ip), vehicle: saline)?
A: 104 % of control

Q: What about the T/C (dose: 8.0 mg/kg/injection, schedule: Q01DX005 (ip), vehicle: Klucel (hydroxypropylcellulose) (HPC)) of the same molecule?
A: 98 % of control

Q: And the T/C [1]?
A: 93 % of control

Q: What about the T/C [2] of the same molecule?
A: 88 % of control

Q: And the T/C [3]?
A: 86 % of control

Q: How did the T/C [1] turn out when `CN=NNc1nc[nH]c1C(N)=O` was run?
A: 99 % of control

Q: And the T/C [2]?
A: 106 % of control

Q: What about the T/C [3] of the same molecule?
A: 110 % of control

Q: What about the T/C (dose: 64.0 mg/kg/injection, schedule: Q01DX005 (ip), vehicle: saline) of the same molecule?
A: 123 % of control

Q: Which T/C (dose: 2.0 mg/kg/injection, schedule: Q01DX005 (ip), vehicle: distilled water + Tween-80) does the source give for `COc1cc2c(cc1O)N=C[C@@H]1CCC(O)N1C2=O` (mixture of isomers) here?
A: 95 % of control

Q: What about the T/C (dose: 4.0 mg/kg/injection, schedule: Q01DX005 (ip), vehicle: distilled water + Tween-80) of the same molecule?
A: 92 % of control

Q: And the T/C (dose: 8.0 mg/kg/injection, schedule: Q01DX005 (ip), vehicle: distilled water + Tween-80)?
A: 87 % of control

Q: With `O=P1(NCCCl)OCCC(OO)N1CCCl` (centres undefined) as the molecule, how does the T/C (dose: 40.0 mg/kg/injection, schedule: Q01DX001 (ip), vehicle: Klucel (hydroxypropylcellulose) (HPC)) read?
A: 106 % of control and 119 % of control

Q: And the T/C (dose: 80.0 mg/kg/injection, schedule: Q01DX001 (ip), vehicle: Klucel (hydroxypropylcellulose) (HPC))?
A: 115 % of control

Q: What about the T/C (dose: 240.0 mg/kg/injection, schedule: Q01DX001 (ip), vehicle: Klucel (hydroxypropylcellulose) (HPC)) of the same molecule?
A: 150 % of control

Q: `O=c1[nH]c(=O)n(C2CC(O)C(CO)O2)cc1C(F)(F)F` (centres undefined) was tested. Which T/C (dose: 32.0 mg/kg/injection, schedule: Q01DX005 (ip), vehicle: Klucel (hydroxypropylcellulose) (HPC)) did it give?
A: 102 % of control

Q: And the T/C (dose: 128.0 mg/kg/injection, schedule: Q01DX005 (ip), vehicle: Klucel (hydroxypropylcellulose) (HPC))?
A: 97 % of control

Q: How did the T/C (dose: 50.0 mg/kg/injection, schedule: Q01DX005 (ip), vehicle: Klucel (hydroxypropylcellulose) (HPC)) turn out when `CC(=O)Nc1ccc(/C=N/NC(N)=S)cc1` was run?
A: 93 % of control

Q: What about the T/C (dose: 100.0 mg/kg/injection, schedule: Q01DX005 (ip), vehicle: Klucel (hydroxypropylcellulose) (HPC)) of the same molecule?
A: 91 % of control

Q: And the T/C (dose: 200.0 mg/kg/injection, schedule: Q01DX005 (ip), vehicle: Klucel (hydroxypropylcellulose) (HPC))?
A: 90 % of control

Q: And the T/C (dose: 400.0 mg/kg/injection, schedule: Q01DX005 (ip), vehicle: Klucel (hydroxypropylcellulose) (HPC))?
A: 91 % of control

Q: And the T/C (dose: 800.0 mg/kg/injection, schedule: Q01DX005 (ip), vehicle: Klucel (hydroxypropylcellulose) (HPC))?
A: 112 % of control

Q: `O=C(NP(=O)(N1CC1)N1CC1)c1cc(I)ccc1I` was tested. Which T/C [1] did it give?
A: 104 % of control and 109 % of control

Q: What about the T/C [2] of the same molecule?
A: 106 % of control and 124 % of control

Q: What about the T/C (dose: 16.0 mg/kg/injection, schedule: Q#A X004 (ip), vehicle: suspension in saline) of the same molecule?
A: 101 % of control

Q: What about the T/C (dose: 16.0 mg/kg/injection, schedule: Q#A X006 (ip), vehicle: suspension in saline) of the same molecule?
A: 113 % of control

Q: What about the T/C (dose: 32.0 mg/kg/injection, schedule: Q01DX001 (ip), vehicle: suspension in saline) of the same molecule?
A: 101 % of control

Q: And the T/C [3]?
A: 112 % of control

Q: What about the T/C (dose: 32.0 mg/kg/injection, schedule: Q#A X004 (ip), vehicle: suspension in saline) of the same molecule?
A: 117 % of control

Q: What about the T/C (dose: 32.0 mg/kg/injection, schedule: Q#A X006 (ip), vehicle: suspension in saline) of the same molecule?
A: 117 % of control

Q: What about the T/C (dose: 64.0 mg/kg/injection, schedule: Q01DX001 (ip), vehicle: suspension in saline) of the same molecule?
A: 117 % of control

Q: And the T/C (dose: 64.0 mg/kg/injection, schedule: Q01DX001 (oral), vehicle: suspension in saline)?
A: 103 % of control

Q: What about the T/C (dose: 64.0 mg/kg/injection, schedule: Q#A X004 (ip), vehicle: suspension in saline) of the same molecule?
A: 117 % of control

Q: And the T/C (dose: 64.0 mg/kg/injection, schedule: Q#A X006 (ip), vehicle: suspension in saline)?
A: 122 % of control

Q: What about the T/C (dose: 128.0 mg/kg/injection, schedule: Q01DX001 (ip), vehicle: suspension in saline) of the same molecule?
A: 103 % of control

Q: What about the T/C (dose: 128.0 mg/kg/injection, schedule: Q01DX001 (oral), vehicle: suspension in saline) of the same molecule?
A: 106 % of control

Q: What about the T/C (dose: 128.0 mg/kg/injection, schedule: Q01DX005 (ip), vehicle: saline) of the same molecule?
A: 116 % of control

Q: And the T/C (dose: 128.0 mg/kg/injection, schedule: Q#A X004 (ip), vehicle: suspension in saline)?
A: 111 % of control

Q: What about the T/C (dose: 256.0 mg/kg/injection, schedule: Q01DX001 (oral), vehicle: suspension in saline) of the same molecule?
A: 113 % of control

Q: What about the T/C (dose: 512.0 mg/kg/injection, schedule: Q01DX001 (ip), vehicle: suspension in saline) of the same molecule?
A: 112 % of control

Q: How did the T/C (dose: 37.5 mg/kg/injection, schedule: Q01DX005 (ip), vehicle: saline) turn out when `N=c1ccn2c(n1)OC1C(O)C(CO)OC12` (centres undefined) was run?
A: 118 % of control

Q: What about the T/C (dose: 75.0 mg/kg/injection, schedule: Q01DX005 (ip), vehicle: saline) of the same molecule?
A: 104 % of control

Q: And the T/C (dose: 100.0 mg/kg/injection, schedule: Q01DX001 (ip), vehicle: saline)?
A: 92 % of control and 94 % of control and 109 % of control

Q: And the T/C (dose: 150.0 mg/kg/injection, schedule: Q01DX005 (ip), vehicle: saline)?
A: 115 % of control

Q: And the T/C (dose: 200.0 mg/kg/injection, schedule: Q01DX001 (ip), vehicle: saline)?
A: 100 % of control (2×) and 101 % of control

Q: What about the T/C (dose: 400.0 mg/kg/injection, schedule: Q01DX001 (ip), vehicle: saline) of the same molecule?
A: 95 % of control and 98 % of control and 112 % of control

Q: And the T/C (dose: 800.0 mg/kg/injection, schedule: Q01DX001 (ip), vehicle: saline)?
A: 106 % of control and 112 % of control and 123 % of control

Q: What about the T/C (dose: 1600.0 mg/kg/injection, schedule: Q01DX001 (ip), vehicle: saline) of the same molecule?
A: 99 % of control and 105 % of control and 115 % of control

Q: `NC(C/[N+]([O-])=N/O)C(=O)O` (centres undefined) was tested. Which T/C (dose: 7.0 mg/kg/injection, schedule: Q01DX005 (ip), vehicle: saline with Tween-80) did it give?
A: 111 % of control

Q: What about the T/C (dose: 12.5 mg/kg/injection, schedule: Q01DX009 (ip), vehicle: Klucel (hydroxypropylcellulose) (HPC)) of the same molecule?
A: 110 % of control

Q: What about the T/C (dose: 14.0 mg/kg/injection, schedule: Q01DX005 (ip), vehicle: saline with Tween-80) of the same molecule?
A: 109 % of control

Q: And the T/C (dose: 16.0 mg/kg/injection, schedule: Q01DX005 (ip), vehicle: saline with Tween-80)?
A: 114 % of control

Q: And the T/C (dose: 25.0 mg/kg/injection, schedule: Q01DX009 (ip), vehicle: Klucel (hydroxypropylcellulose) (HPC))?
A: 119 % of control

Q: What about the T/C (dose: 28.0 mg/kg/injection, schedule: Q01DX005 (ip), vehicle: saline with Tween-80) of the same molecule?
A: 118 % of control

Q: What about the T/C (dose: 32.0 mg/kg/injection, schedule: Q01DX005 (ip), vehicle: saline with Tween-80) of the same molecule?
A: 118 % of control

Q: And the T/C (dose: 50.0 mg/kg/injection, schedule: Q01DX009 (ip), vehicle: Klucel (hydroxypropylcellulose) (HPC))?
A: 112 % of control

Q: What about the T/C (dose: 56.0 mg/kg/injection, schedule: Q01DX005 (ip), vehicle: saline with Tween-80) of the same molecule?
A: 119 % of control

Q: And the T/C (dose: 64.0 mg/kg/injection, schedule: Q01DX005 (ip), vehicle: saline with Tween-80)?
A: 117 % of control

Q: What about the T/C (dose: 112.0 mg/kg/injection, schedule: Q01DX005 (ip), vehicle: saline with Tween-80) of the same molecule?
A: 122 % of control

Q: And the T/C (dose: 256.0 mg/kg/injection, schedule: Q01DX005 (ip), vehicle: saline with Tween-80)?
A: 109 % of control

Q: Which results are given for `O=NN(CCF)C(=O)NC1CCCCC1`?
A: T/C (dose: 5.1 mg/kg/injection, schedule: Q01DX001 (ip), vehicle: other): 106 % of control; T/C (dose: 5.18 mg/kg/injection, schedule: Q01DX005 (ip), vehicle: Klucel (hydroxypropylcellulose) (HPC)): 184 % of control; T/C (dose: 8.64 mg/kg/injection, schedule: Q01DX005 (ip), vehicle: Klucel (hydroxypropylcellulose) (HPC)): 357 % of control; T/C (dose: 10.2 mg/kg/injection, schedule: Q01DX001 (ip), vehicle: other): 123 % of control; T/C (dose: 13.0 mg/kg/injection, schedule: Q01DX001 (ip), vehicle: Klucel (hydroxypropylcellulose) (HPC)): 153 % of control; T/C (dose: 14.4 mg/kg/injection, schedule: Q01DX005 (ip), vehicle: Klucel (hydroxypropylcellulose) (HPC)): 357 % of control; T/C (dose: 20.4 mg/kg/injection, schedule: Q01DX001 (ip), vehicle: other): 160 % of control; T/C (dose: 21.6 mg/kg/injection, schedule: Q01DX001 (ip), vehicle: Klucel (hydroxypropylcellulose) (HPC)): 216 % of control; T/C (dose: 24.0 mg/kg/injection, schedule: Q01DX005 (ip), vehicle: Klucel (hydroxypropylcellulose) (HPC)): 357 % of control; T/C (dose: 36.0 mg/kg/injection, schedule: Q01DX001 (ip), vehicle: Klucel (hydroxypropylcellulose) (HPC)): 363 % of control; T/C (dose: 40.7 mg/kg/injection, schedule: Q01DX001 (ip), vehicle: other): 220 % of control; T/C (dose: 60.0 mg/kg/injection, schedule: Q01DX001 (ip), vehicle: Klucel (hydroxypropylcellulose) (HPC)): 363 % of control; T/C (dose: 81.4 mg/kg/injection, schedule: Q01DX001 (ip), vehicle: other): 331 % of control; T/C (dose: 100.0 mg/kg/injection, schedule: Q01DX001 (ip), vehicle: Klucel (hydroxypropylcellulose) (HPC)): 333 % of control
